Results on one substance are retold here after patent US20050063931A1, “Hair-follicle treatment,in particular against hair loss” (priority 2001, published 2005).

Test [1] in a line: Abortions in pregnant mice (sonic stress model). It is filed as in vivo, mice of the strain CBA/J. As to conditions: no stress + SP, pregnant CBA/J mice. Here is the method: (§1) The tests were carried out in vivo on mice of the strain CBA/J which were pregnant since, as is known, there is a close correlation between exposure to stress and an increase in the percentage of abortions. In accordance with a well-established model for the study of stress, some mice were subjected to predetermined doses of ultrasound (sonic stress) for 7 days, to ascertain its impact both on the activity of the hair follicle and on the immune response of the perifollicular region. Another group of mice was subjected to treatment with substance P (SP), and yet others to sonic stress treatment combined with the administration of a NK1-receptor antagonist substance (indicated SP-RA). Upon completion of the above-mentioned treatments, the parameters listed above were measured again and compared with those measured in mice which had not been subjected to any treatment.

Test [2] has as its system hair follicle. In words: Cells in apoptosis in the hair follicle by TUNEL technique. It is filed as in vivo, mice of the strain CBA/J. As to conditions: no stress + SP. Here is the method: The tests were carried out in vivo on mice of the strain CBA/J which were pregnant since, as is known, there is a close correlation between exposure to stress and an increase in the percentage of abortions. In order to determine the effect of stress on hair growth, the following biological and immunological parameters were measured: • the number of cells in apoptosis in the hair follicle, • the proliferation of keratinocytes in the hair follicle, • the activity of some immunocytes, in particular, of macrophages, mast cells, and γδT cells. In accordance with a well-established model for the study of stress, some mice were subjected to predetermined doses of ultrasound (sonic stress) for 7 days, to ascertain its impact both on the activity of the hair follicle and on the immune response of the perifollicular region. […] Upon completion of the above-mentioned treatments, the parameters listed above were measured again and compared with those measured in mice which had not been subjected to any treatment. The number of cells in apoptosis was measured by the TUNEL technique in a first region of the hair follicle comprising the infundibulum, the capsular germinal region, and the secondary germinal region (column 3), and in a second, more extensive region comprising, in addition to the first region, the epidermis and the parafollicular dermis (column 4).

The subject of test [3] is keratinocytes in the hair follicle. The test can be described thus: Proliferation of keratinocytes in the hair follicle, positive Ki67 cells (immunohistochemical). It is filed as in vivo, mice of the strain CBA/J. Particulars: no stress + SP. The protocol: as §1, with “abortions. In order to determine the effect of stress on hair growth, the following biological and immunological parameters were measured: • the number of cells in apoptosis in the hair follicle, • the proliferation of keratinocytes in the hair follicle, • the activity of some immunocytes, in particular, of macrophages, mast cells, and γδT cells.” for “abortions.”, “treatment. The proliferation of the keratinocytes was measured by an immunohistochemical technique by measurement of the positive Ki67 cells (column 5).” for “treatment.”

The test system of test [4] is perifollicular macrophages. In words: Macrophage presence by expression of Class II MHC glycoprotein. Particulars: no stress + SP. It is filed as in vivo, mice of the strain CBA/J. The protocol: as §1, with “abortions. In order to determine the effect of stress on hair growth, the following biological and immunological parameters were measured: • the number of cells in apoptosis in the hair follicle, • the proliferation of keratinocytes in the hair follicle, • the activity of some immunocytes, in particular, of macrophages, mast cells, and γδT cells.” for “abortions.”, “treatment. Macrophage presence was investigated by detection of the expression of Class II MHC glycoprotein (column 6).” for “treatment.”

Test [5] deals with mast cells. In words: Mast-cell activity, degranulated mast cells. As to conditions: no stress + SP. It is filed as in vivo, mice of the strain CBA/J. The protocol: as §1, with “abortions. In order to determine the effect of stress on hair growth, the following biological and immunological parameters were measured: • the number of cells in apoptosis in the hair follicle, • the proliferation of keratinocytes in the hair follicle, • the activity of some immunocytes, in particular, of macrophages, mast cells, and γδT cells.” for “abortions.”, “treatment. Mast-cell activity was measured by measuring the percentage of degranulated mast cells relative to the total mast cells present in the field of vision (column 7).” for “treatment.”

Test [6] deals with γδT cells. The test can be described thus: γδT-cell presence (immunohistochemical). It is filed as in vivo, mice of the strain CBA/J. As to conditions: no stress + SP. The protocol:
as §1, with “abortions. In order to determine the effect of stress on hair growth, the following biological and immunological parameters were measured: • the number of cells in apoptosis in the hair follicle, • the proliferation of keratinocytes in the hair follicle, • the activity of some immunocytes, in particular, of macrophages, mast cells, and γδT cells.” for “abortions.”, “treatment. γδT-cell presence was detected by an immunohistochemical technique (column 8).” for “treatment.”

The subject of test [7] is hair follicle. The test can be described thus: Extent of progress of the hair cycle (HCS) 16 days after epilation, FIG. 1. It is filed as in vivo, mice. As to conditions: group C, substance P, no stress. From the text:
The extent of progress of the cycle in this case was an index of the rate at which the hair follicle progresses from the anagen to the catagen.
With reference to the histogram of FIG. 1, appended to the present description: • the first group of mice (A) underwent no treatment, • the second group (B) was subjected to sonic stress, • the third group (C) was subjected to treatment with substance P, • the fourth group (D) was subjected to treatment with an NK1-receptor antagonist substance, and • the fifth group (E) was subjected to combined stress and NK1-receptor antagonist substance treatment.

Test [8] deals with hair follicle. Particulars: treatment during telogen stage; cited from earlier work.

Substance P [SP]: in test [1], the “% Abortions” value is reported as 19%. In test [2], the “TUNEL+ cells in apoptosis, first region of the hair follicle (infundibulum, capsular germinal region, secondary germinal region)” value amounted to 8.0; the “TUNEL+ cells in apoptosis, second more extensive region (first region plus epidermis and parafollicular dermis)” value is 9.0. Moreover, the “Ki67+ cells (proliferation of keratinocytes)” value in test [3] was determined as 7.7. Further, in test [4], the “MHC II (macrophage presence)” value stood at 11.0. In addition, the “MC (percentage of degranulated mast cells relative to total mast cells in the field of vision)” value in test [5] is recorded as 7.9. Further, in test [6], the “γδ TCR+ (γδT-cell presence)” value came to 1.3. Besides, in test [7], the “Extent of progress of the cycle (HCS): premature catagen” value is “an effect also well simulated by substance P”. Besides, in test [8], the “Effect on hair follicle treated during the telogen stage” value is recorded as “induced to go on to the subsequent anagen stage”.
